Test results taken from US9113649B2, “Food additive comprising an amidase for detoxifying ochratoxin” (DuPont Nutrition Biosciences ApS, priority 2010, dated 2015).

Molecular target: Aspergillus niger amidase 2 sig (full length 480 aa, intracellular fraction, SEQ ID NO: 1) (Aspergillus niger, UniProt A2R2V4)
Settings: pH 7
Method: The reaction contained 60 μl mops-NaOH (0.2M, pH7.0), 20 mM CaCl2, 20 mM EDTA, amidase 2 sig (0.46 μg protein) extracted from A. niger cell harboring the amidase gene, 2 μl 25 μg/ml OTA and water to a final volume of 120 μl. The reaction was performed at 37° C. for 30 min and stopped by adding 150 μl acetonitrile containing 0.2% acetic acid. OTA and its product OT-alpha (=ODα) were analyzed on RP-HPLC on C18 column with an injection of 5 μl. Positive control (PC) contained no additives other than the buffer the amidase and OTA. Blank contained only buffer and OTA.

Sequence of Aspergillus niger amidase 2 sig (full length 480 aa, intracellular fraction, SEQ ID NO: 1) (A2R2V4 other isoform, or with tags, fused parts or gaps): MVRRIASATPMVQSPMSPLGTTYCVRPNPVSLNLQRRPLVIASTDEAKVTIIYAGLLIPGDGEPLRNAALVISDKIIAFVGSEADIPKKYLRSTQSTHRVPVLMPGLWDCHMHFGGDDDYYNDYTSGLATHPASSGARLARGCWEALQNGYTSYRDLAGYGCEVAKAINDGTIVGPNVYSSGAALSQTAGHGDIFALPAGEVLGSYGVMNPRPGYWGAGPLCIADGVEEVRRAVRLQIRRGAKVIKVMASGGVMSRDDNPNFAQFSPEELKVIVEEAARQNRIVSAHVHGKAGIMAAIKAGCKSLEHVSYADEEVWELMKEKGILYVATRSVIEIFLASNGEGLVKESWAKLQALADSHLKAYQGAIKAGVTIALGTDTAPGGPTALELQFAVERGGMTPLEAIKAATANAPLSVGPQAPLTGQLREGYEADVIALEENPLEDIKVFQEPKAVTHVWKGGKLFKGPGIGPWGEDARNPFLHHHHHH

O=C(O)CN(CCN(CC(=O)O)CC(=O)O)CC(=O)O [EDTA]
inhibition of amidase 2 sig (OTA degradation): no inhibition
